# Data taken from patent publication US4335249A, “Herbicidal diphenyl ethers, sulfides, sulfoxides and sulfones” (Rohm and Haas Company, priority 1976, dated 1982).
# Experiments:
# Type in all cases: in vivo
# [1] = system: yellow nutsedge (Cyperus esculentus); experiment: Preemergence herbicidal activity, yellow nutsedge; settings: 2 lb/A; for pest or weed control at 2241.7 g/ha: Cyperus, pre-emergence, 336 h; for % control, Nutsedge: Pre
# Experimental: (§1) Using the procedure described below, compounds of the invention are evaluated for control of several of the following plant species:
# (§2) The following est procedure is employed. Seeds of selected crops and weeds are planted in soil in flats. For preemergence tests, the flats are treated with the test compound immediately after the planting. For postemergence tests, the seeds are allowed to germinate, and after two weeks the flats are treated with the test compound. The compound to be evaluated is dissolved in acetone, diluted with water, and sprayed over the flats using a carrier volume equivalent to 50 gallons per acre at the rate of application (pounds per acre, lb/A.) specified in the tables. About two weeks after the application of the test compound, the state of growth of the plants is observed and the phytotoxic effect of the compound is evaluated. Tables III and IV give the average percent control achieved by test compounds in terms of the percent of the plants which are killed by the compounds.
# [2] = system: yellow nutsedge (Cyperus esculentus); experiment: Postemergence herbicidal activity, yellow nutsedge; settings: 2 lb/A; for pest or weed control at 2241.7 g/ha: Cyperus, post-emergence, 336 h; for % control, Nutsedge: Post
# Experimental: as §1, §2
# [3] = system: morningglory (Ipomoca spp.); experiment: Preemergence herbicidal activity, morningglory; settings: 2 lb/A; for pest or weed control at 2241.7 g/ha: Ipomoea, pre-emergence, 336 h; for % control, Morningglory: Pre
# Experimental: as §1, §2
# [4] = system: velvetleaf (Abutilon theophrasti); experiment: Preemergence herbicidal activity, velvetleaf; settings: Pre, 2 lb/A; for pest or weed control at 2241.7 g/ha: Abutilon theophrasti, pre-emergence, 336 h
# Experimental: as §1, §2
# [5] = system: downybrome (Bromus tectorum); experiment: Preemergence herbicidal activity, downybrome; settings: Pre, 2 lb/A; for pest or weed control at 2241.7 g/ha: Bromus tectorum, pre-emergence, 336 h
# Experimental: as §1, §2
# [6] = system: tomato (Lycopersicon esculentum); experiment: Postemergence herbicidal activity, tomato; settings: Post, 2 lb/A; for pest or weed control at 2241.7 g/ha: Solanum lycopersicum, post-emergence, 336 h
# Experimental: as §1, §2
# foxtail (Setaria spp.) [7] = experiment: Preemergence herbicidal activity, foxtail; settings: Pre, 2 lb/A; for pest or weed control at 2241.7 g/ha: Setaria, pre-emergence, 336 h
# Experimental: as §1, §2
# foxtail (Setaria spp.) [8] = experiment: Postemergence herbicidal activity, foxtail; settings: Post, 2 lb/A; for pest or weed control at 2241.7 g/ha: Setaria, post-emergence, 336 h
# Experimental: as §1, §2
# [9] = system: velvetleaf (Abutilon theophrasti); experiment: Postemergence herbicidal activity, velvetleaf; settings: 2 lb/A; for pest or weed control at 2241.7 g/ha: Abutilon theophrasti, post-emergence, 336 h; for % control, Velvetleaf: Post
# Experimental: as §1
# (§3) The following est procedure is employed. Seeds of selected crops and weeds are planted in soil in flats. For preemergence tests, the flats are treated with the test compound immediately after the planting. For postemergence tests, the seeds are allowed to germinate, and after two weeks the flats are treated with the test compound. The compound to be evaluated is dissolved in acetone, diluted with water, and sprayed over the flats using a carrier volume equivalent to 50 gallons per acre at the rate of application (pounds per acre, lb/A.) specified in the tables.
# marigold (Tagetes spp.) [10] = experiment: Postemergence herbicidal activity, marigold; settings: 2 lb/A; for pest or weed control at 2241.7 g/ha: post-emergence, 336 h; for % control, Marigold: Post
# Experimental: as §1, §2
# [11] = system: downybrome (Bromus tectorum); experiment: Postemergence herbicidal activity, downybrome; settings: Post, 2 lb/A; for pest or weed control at 2241.7 g/ha: Bromus tectorum, post-emergence, 336 h
# Experimental: as §1, §2
# [12] = system: cocklebur (Xanthium pensylvanicum); experiment: Preemergence herbicidal activity, cocklebur; settings: 2 lb/A; for pest or weed control at 2241.7 g/ha: Xanthium strumarium, pre-emergence, 336 h; for % control, Cocklebur: Pre
# Experimental: as §1, §2
# [13] = system: cocklebur (Xanthium pensylvanicum); experiment: Postemergence herbicidal activity, cocklebur; settings: 2 lb/A; for pest or weed control at 2241.7 g/ha: Xanthium strumarium, post-emergence, 336 h; for % control, Cocklebur: Post
# Experimental: as §1, §2
# wild oats (Avena fatua) [14] = experiment: Preemergence herbicidal activity, wild oats; settings: Pre, 2 lb/A; for pest or weed control at 2241.7 g/ha: Avena fatua, pre-emergence, 336 h, read-out: % control, Wild oat
# Experimental: as §1, §2
# [15] = system: barnyardgrass (Echinochloa crusgalli); experiment: Postemergence herbicidal activity, barnyardgrass; settings: Post, 2 lb/A; for pest or weed control at 2241.7 g/ha: Echinochloa crus-galli, post-emergence, 336 h
# Experimental: as §1, §3
# [16] = system: morningglory (Ipomoca spp.); experiment: Postemergence herbicidal activity, morningglory; settings: 2 lb/A; for pest or weed control at 2241.7 g/ha: Ipomoea, post-emergence, 336 h; for % control, Morningglory: Post
# Experimental: as §1, §2
# [17] = system: barnyardgrass (Echinochloa crusgalli); experiment: Preemergence herbicidal activity, barnyardgrass; settings: Pre, 2 lb/A; for pest or weed control at 2241.7 g/ha: Echinochloa crus-galli, pre-emergence, 336 h
# Experimental: as §1, §3
# wild oats (Avena fatua) [18] = experiment: Postemergence herbicidal activity, wild oats; settings: Post, 2 lb/A; for pest or weed control at 2241.7 g/ha: Avena fatua, post-emergence, 336 h, read-out: % control, Wild oat
# Experimental: as §1, §2
# [19] = system: tomato (Lycopersicon esculentum); experiment: Preemergence herbicidal activity, tomato; settings: Pre, 2 lb/A; for pest or weed control at 2241.7 g/ha: Solanum lycopersicum, pre-emergence, 336 h
# Experimental: as §1, §2
# marigold (Tagetes spp.) [20] = experiment: Preemergence herbicidal activity, marigold; settings: 2 lb/A; for pest or weed control at 2241.7 g/ha: pre-emergence, 336 h; for % control, Marigold: Pre
# Experimental: as §1, §2
Compound,pest or weed control at 2241.7 g/ha [1] [%],pest or weed control at 2241.7 g/ha [2] [%],pest or weed control at 2241.7 g/ha [3] [%],pest or weed control at 2241.7 g/ha [4] [%],pest or weed control at 2241.7 g/ha [5] [%],pest or weed control at 2241.7 g/ha [6] [%],pest or weed control at 2241.7 g/ha (foxtail (Setaria spp.) [7]) [%],pest or weed control at 2241.7 g/ha (foxtail (Setaria spp.) [8]) [%],pest or weed control at 2241.7 g/ha [9] [%],pest or weed control at 2241.7 g/ha (marigold (Tagetes spp.) [10]) [%],pest or weed control at 2241.7 g/ha [11] [%],pest or weed control at 2241.7 g/ha [12] [%],pest or weed control at 2241.7 g/ha [13] [%],pest or weed control at 2241.7 g/ha (wild oats (Avena fatua) [14]) [%],pest or weed control at 2241.7 g/ha [15] [%],pest or weed control at 2241.7 g/ha [16] [%],pest or weed control at 2241.7 g/ha [17] [%],pest or weed control at 2241.7 g/ha (wild oats (Avena fatua) [18]) [%],pest or weed control at 2241.7 g/ha [19] [%],pest or weed control at 2241.7 g/ha (marigold (Tagetes spp.) [20]) [%],further results
COCCOC(=O)C(C)Oc1ccc(Oc2ccc(C(F)(F)F)cc2Cl)cc1 (centres unmarked) [Example 25],30,40,0,0,95,95,100,100,60,30,80,0,20,70,100,40,100,100,0,0,
CC(Oc1ccc(Oc2ccc(C(F)(F)F)cc2Cl)cc1)C(=O)O (centres unmarked) [Example 15],,,,,,,,,,,,,,,90,,,,,,"% control, Nutsedge [1]: 0%; % control, Nutsedge [2]: 0%; % control, Morningglory [3]: 40%; % control, Velvetleaf [4]: 0%; % control, Downybrome [5]: 0%; % control, Tomato [6]: 0%; % control, Foxtail (foxtail (Setaria spp.) [7]): 100%; % control, Foxtail (foxtail (Setaria spp.) [8]): 90%; % control, Velvetleaf [9]: 0%; % control, Marigold (marigold (Tagetes spp.) [10]): 0%; % control, Downybrome [11]: 0%; % control, Cocklebur [12]: 0%; % control, Cocklebur [13]: 0%; % control, Wild oat (wild oats (Avena fatua) [14]): 0%; % control, Morningglory [16]: 0%; % control, Barnyardgrass [17]: 100%; % control, Wild oat (wild oats (Avena fatua) [18]): 20%; % control, Tomato [19]: 0%; % control, Marigold (marigold (Tagetes spp.) [20]): 0%"
CC(Oc1ccc(Oc2ccc(C(F)(F)F)cc2Cl)cc1)C(=O)O (centres unmarked) [Example 13],,,,,,,,,,,,,,,,,,,,,"% control, Nutsedge [1]: 0%; % control, Nutsedge [2]: 0%; % control, Morningglory [3]: 0%; % control, Velvetleaf [4]: 0%; % control, Downybrome [5]: 70%; % control, Tomato [6]: 0%; % control, Foxtail (foxtail (Setaria spp.) [7]): 100%; % control, Foxtail (foxtail (Setaria spp.) [8]): 90%; % control, Velvetleaf [9]: 0%; % control, Marigold (marigold (Tagetes spp.) [10]): 0%; % control, Downybrome [11]: 20%; % control, Cocklebur [12]: 0%; % control, Cocklebur [13]: 0%; % control, Wild oat (wild oats (Avena fatua) [14]): 70%; % control, Barnyardgrass [15]: 100%; % control, Morningglory [16]: 0%; % control, Barnyardgrass [17]: 100%; % control, Wild oat (wild oats (Avena fatua) [18]): 60%; % control, Tomato [19]: 0%; % control, Marigold (marigold (Tagetes spp.) [20]): 0%"
CCOC(=O)C(C)Oc1ccc(Oc2ccc(C(F)(F)F)cc2C#N)cc1 (centres unmarked) [Example 37],0,0,40,20,95,30,60,95,0,10,90,0,30,0,100,10,100,90,20,0,
